From PubChem BioAssay AID248 (DTP/NCI, 2004)
“And” between values parts separate entries of the source, which are not always exact repeats. Equal entries are not always repeated. Toxic doses and inconclusive results are not listed. No stated cut-off is given here; in the data, active means T/C of 150% or more; inactive means T/C below 125%.

Test system: L1210 leukemia ip in BDF1 mice, survival T/C
Assay: NCI In Vivo Anticancer Drug Screen. Data for tumor model L1210 Leukemia (intraperitoneal) in B6D2F1 (BDF1) mice
Details: endpoint: mean survival time, higher = longer survival
Outline: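 Antitumor effect is assessed in tumor-bearing animals. Survival in the compound arm is compared with a vehicle-dosed control arm and expressed as their quotient.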

[1] = dose: 100.0 mg/kg/injection, schedule: Q04DX002 (ip), vehicle: saline with Tween-80
[2] = dose: 50.0 mg/kg/injection, schedule: Q04DX003 (ip), vehicle: saline with Tween-80
[3] = dose: 100.0 mg/kg/injection, schedule: Q04DX003 (ip), vehicle: Klucel (hydroxypropylcellulose) (HPC)
[4] = dose: 200.0 mg/kg/injection, schedule: Q01DX009 (ip), vehicle: Klucel (hydroxypropylcellulose) (HPC)
[5] = dose: 200.0 mg/kg/injection, schedule: Q04DX003 (ip), vehicle: Klucel (hydroxypropylcellulose) (HPC)
[6] = dose: 400.0 mg/kg/injection, schedule: Q04DX003 (ip), vehicle: Klucel (hydroxypropylcellulose) (HPC)
[7] = dose: 100.0 mg/kg/injection, schedule: Q01DX001 (ip), vehicle: Klucel (hydroxypropylcellulose) (HPC)
[8] = dose: 200.0 mg/kg/injection, schedule: Q01DX001 (ip), vehicle: Klucel (hydroxypropylcellulose) (HPC)
[9] = dose: 400.0 mg/kg/injection, schedule: Q01DX001 (ip), vehicle: Klucel (hydroxypropylcellulose) (HPC)

Measured: T/C

NN1CCCCCC1
inactive: dose: 100.0 mg/kg/injection, schedule: Q04DX003 (ip), vehicle: saline 102 % of control | dose: 200.0 mg/kg/injection, schedule: Q04DX003 (ip), vehicle: saline 97 % of control | dose: 400.0 mg/kg/injection, schedule: Q04DX003 (ip), vehicle: saline 94 % of control

O=C(OCC1OCOC(COC(=O)c2ccccc2)C1O)c1ccccc1 (stereo unspecified)
inactive: dose: 50.0 mg/kg/injection, schedule: Q04DX002 (ip), vehicle: saline with Tween-80 118 % of control | [1] 112 % of control | dose: 200.0 mg/kg/injection, schedule: Q04DX002 (ip), vehicle: saline with Tween-80 102 % of control

C/C=C1\C(=O)C2CCC1C2 (stereo unspecified)
inactive: dose: 100.0 mg/kg/injection, schedule: Q01DX001 (ip), vehicle: carboxymethylcellulose (CMC) 93 % of control | dose: 200.0 mg/kg/injection, schedule: Q01DX001 (ip), vehicle: carboxymethylcellulose (CMC) 90 % of control | dose: 400.0 mg/kg/injection, schedule: Q01DX001 (ip), vehicle: carboxymethylcellulose (CMC) 95 % of control

CCCCCCCC(=O)N1CCOCC1
inactive: [2] 96 % of control

O=S(=O)(O)CNc1cc(Cl)cc(Cl)c1
inactive: [3] 90 % of control | [4] 93 % of control | [5] 88 % of control | dose: 400.0 mg/kg/injection, schedule: Q01DX009 (ip), vehicle: Klucel (hydroxypropylcellulose) (HPC) 91 % of control | [6] 92 % of control

CCOC(=O)NCC(CCN(C)CC)(c1cccc2ccccc12)C(C)C (stereo unspecified)
inactive: dose: 12.5 mg/kg/injection, schedule: Q01DX009 (ip), vehicle: saline with Tween-80 93 % of control | dose: 12.5 mg/kg/injection, schedule: Q04DX003 (ip), vehicle: saline with Tween-80 93 % of control | dose: 25.0 mg/kg/injection, schedule: Q01DX009 (ip), vehicle: saline with Tween-80 98 % of control | dose: 25.0 mg/kg/injection, schedule: Q04DX003 (ip), vehicle: saline with Tween-80 98 % of control | [2] 93 % of control

NC(=S)N/N=C/c1nc2ccccc2[nH]c1=O
inactive: dose: 26.0 mg/kg/injection, schedule: Q03HX032 (ip), vehicle: saline with Tween-80 90 % of control and 91 % of control | dose: 40.0 mg/kg/injection, schedule: Q03HX032 (ip), vehicle: saline with Tween-80 95 % of control and 87 % of control | dose: 60.0 mg/kg/injection, schedule: Q03HX032 (ip), vehicle: saline with Tween-80 88 % of control and 90 % of control | dose: 90.0 mg/kg/injection, schedule: Q03HX032 (ip), vehicle: saline with Tween-80 94 % of control and 89 % of control | dose: 135.0 mg/kg/injection, schedule: Q03HX032 (ip), vehicle: saline with Tween-80 89 % of control

O=C(O)Cc1c(-c2ccccn2)[nH]c2ccccc12
inactive: dose: 75.0 mg/kg/injection, schedule: Q01DX001 (ip), vehicle: acetone 103 % of control | dose: 150.0 mg/kg/injection, schedule: Q01DX001 (ip), vehicle: acetone 102 % of control | dose: 300.0 mg/kg/injection, schedule: Q01DX001 (ip), vehicle: acetone 94 % of control

N/C(=N\OC(=O)Nc1ccc(Cl)cc1)C(Cl)(Cl)Cl
inactive: dose: 100.0 mg/kg/injection, schedule: Q01DX009 (ip), vehicle: Klucel (hydroxypropylcellulose) (HPC) 94 % of control | [4] 90 % of control

C1=Cc2cccc3c2N(C1)CCC3 (tested in a mixture with another compound)
inactive: dose: 100.0 mg/kg/injection, schedule: Q01DX009 (ip), vehicle: saline with Tween-80 103 % of control | dose: 100.0 mg/kg/injection, schedule: Q04DX003 (ip), vehicle: saline with Tween-80 109 % of control | dose: 200.0 mg/kg/injection, schedule: Q01DX009 (ip), vehicle: saline with Tween-80 107 % of control | dose: 200.0 mg/kg/injection, schedule: Q04DX003 (ip), vehicle: saline with Tween-80 93 % of control | dose: 400.0 mg/kg/injection, schedule: Q01DX009 (ip), vehicle: saline with Tween-80 95 % of control | dose: 400.0 mg/kg/injection, schedule: Q04DX003 (ip), vehicle: saline with Tween-80 98 % of control

CN/N=C/c1ccc(C(=O)NC(C)C)cc1
inactive: dose: 25.0 mg/kg/injection, schedule: Q04DX003 (ip), vehicle: Klucel (hydroxypropylcellulose) (HPC) 98 % of control | dose: 50.0 mg/kg/injection, schedule: Q04DX003 (ip), vehicle: Klucel (hydroxypropylcellulose) (HPC) 102 % of control | [3] 102 % of control | [5] 109 % of control

CC(C)COC(=O)C1(C)OC1c1ccccc1 (stereo unspecified)
inactive: dose: 100.0 mg/kg/injection, schedule: Q04DX002 (ip), vehicle: saline 115 % of control | dose: 200.0 mg/kg/injection, schedule: Q04DX002 (ip), vehicle: saline 104 % of control | dose: 400.0 mg/kg/injection, schedule: Q04DX002 (ip), vehicle: saline 97 % of control

[N-]=[N+]=Nc1ccc(C(=O)NCc2cnc(N)nc2N)cc1
inactive: [1] 98 % of control

CCOC(=O)c1cnc(OCC)nc1Nc1ccccc1Br
inactive: [7] 100 % of control | [8] 95 % of control | [9] 97 % of control

c1ccc2c(c1)C1CCCCC2c2ccccc21
inactive: [7] 102 % of control | [8] 97 % of control | [9] 100 % of control

CC(=O)OC(c1ccccc1)C1CCCCC1N1CCCCC1 (stereo unspecified)
inactive: [7] 95 % of control | [8] 96 % of control

CC(=O)COc1ccc(C(=O)Cl)cc1
inactive: [3] 95 % of control | [5] 102 % of control | dose: 300.0 mg/kg/injection, schedule: Q04DX003 (ip), vehicle: Klucel (hydroxypropylcellulose) (HPC) 106 % of control

O=C(OCC1CCCO1)c1ccccc1O (stereo unspecified)
inactive: [3] 100 % of control | [5] 100 % of control | [6] 95 % of control

CCOC(=O)CNc1ccc(F)c(Cl)c1
inactive: dose: 100.0 mg/kg/injection, schedule: Q04DX002 (ip), vehicle: Klucel (hydroxypropylcellulose) (HPC) 106 % of control and 108 % of control | dose: 200.0 mg/kg/injection, schedule: Q04DX002 (ip), vehicle: Klucel (hydroxypropylcellulose) (HPC) 98 % of control and 112 % of control | dose: 400.0 mg/kg/injection, schedule: Q04DX002 (ip), vehicle: Klucel (hydroxypropylcellulose) (HPC) 102 % of control | dose: 600.0 mg/kg/injection, schedule: Q04DX002 (ip), vehicle: Klucel (hydroxypropylcellulose) (HPC) 98 % of control

O=C(Nc1ccc(O)cc1)Nc1ccc(O)cc1
inactive: dose: 37.5 mg/kg/injection, schedule: Q01DX Z (ip), vehicle: carboxymethylcellulose (CMC) 103 % of control | dose: 53.0 mg/kg/injection, schedule: Q01DX Z (ip), vehicle: carboxymethylcellulose (CMC) 92 % of control | dose: 53.0 mg/kg/injection, schedule: Q01DX Z (ip), vehicle: other 105 % of control | dose: 75.0 mg/kg/injection, schedule: Q01DX Z (ip), vehicle: carboxymethylcellulose (CMC) 115 % of control | dose: 80.0 mg/kg/injection, schedule: Q01DX Z (ip), vehicle: carboxymethylcellulose (CMC) 93 % of control | dose: 80.0 mg/kg/injection, schedule: Q01DX Z (ip), vehicle: other 102 % of control | dose: 120.0 mg/kg/injection, schedule: Q01DX Z (ip), vehicle: carboxymethylcellulose (CMC) 92 % of control | dose: 120.0 mg/kg/injection, schedule: Q01DX Z (ip), vehicle: other 103 % of control | dose: 150.0 mg/kg/injection, schedule: Q01DX Z (ip), vehicle: carboxymethylcellulose (CMC) 103 % of control | dose: 180.0 mg/kg/injection, schedule: Q01DX Z (ip), vehicle: carboxymethylcellulose (CMC) 89 % of control | dose: 180.0 mg/kg/injection, schedule: Q01DX Z (ip), vehicle: other 102 % of control | dose: 270.0 mg/kg/injection, schedule: Q01DX Z (ip), vehicle: other 103 % of control | dose: 300.0 mg/kg/injection, schedule: Q01DX Z (ip), vehicle: carboxymethylcellulose (CMC) 98 % of control | dose: 404.0 mg/kg/injection, schedule: Q01DX Z (ip), vehicle: other 105 % of control
